From publication PMC9688808, “Discovery of Novel Lin28 Inhibitors to Suppress Cancer Cell Stemness” (Cancers, 2022)

Columns and labels:
DUNE cells [1] = experiment: Colony formation assay, DUNE cells; assay type: cell-based; details: 20 uM (Figure 7C)
Procedure: (§1) There are several standard molecular techniques, including real-time qPCR, flow cytometry, cell proliferation, colony formation, and immunoblotting assays, that have been reported previously by our lab.
(§2) Figure 7 Lin28 inhibitors block CSC phenotypes of cancer cells. (A) FACS analysis using CD44 and CD133 antibodies detected CSC cell populations from DUNE or DUNE (KO) cells treated with either vehicle or 20 uM of Ln7, Ln15, and Ln115 for 48 h. (B) DUNE, DUNE (KO), and IGROV1 cell proliferation were measured in the presence of 20 uM of Ln7, Ln15, and Ln115. (C) Colony formation assays (colonies >[…] were counted) measured the suppressive effects of Ln7, Ln15, and Ln115 at the concentration of 20 uM. p-value ≤ 0.01—(**); ≤0.001—(***).
Figure S4. A. Colony formation assays: DUNE cells were seeded in 500 cells/well. Chemicals were added one day after cell seeding (n=3 wells/chemical). Medium with chemical at the concentration of 60uM was changed every four days for 14 days. […]
0.005% crystal violet staining for 2 hours. ImageJ was used to analyze colony size and numbers (circularity was set at 0.5 -1, which is equivalent to 50uM in size). Only colonies larger than […]
50uM were countered. […]
(1 picture or pasted object on this page, not shown here)

[2] = set-up: method as in PMID 29874593; details: at high uM concentrations; cited from earlier work
IGROV1 cells = experiment: Real-time qPCR of Let-7d, SOX2, HMGA2 in IGROV1 cells; assay type: cell-based; details: IGROV1 cells (Lin28A-positive), 20 uM, 48 h
Procedure: The DUNE cell line and DUNE cells with Lin28B knockout by CRISPR (DUNE (KO)) were reported in our previous studies. IGROV1 cells were obtained from Sigma-Aldrich (St. Louis, MO, USA). DUNE and DUNE (KO) cells were cultured in Dulbecco’s Modified Eagle Medium with high Glucose/L-glutamine (DMEM; Hyclone, Logan, UT, USA) and 10% of fetal bovine serum (FBS; Gibico, Waltham, MA, USA). IGROV1 cells were cultured in Roswell Park Memorial Institute 1640 (RPMI-1640; Hyclone) medium with 10% FBS. All the cell lines were incubated in 5% CO2 at 37 °C and were tested for mycoplasma contamination monthly and cell line authentication was tested by short tandem repeat profiling by ATCC.
as §1
(§3) Figure 5 Lin28 inhibitors block the Lin28A isoform. (A) EMSA used 10 nM of IR800DyeCWN-labeled Let-7 probe (lane 1), 0.5 uM Lin28A ZKD protein with 10 nM of labeled Let-7 probe (lane 2), or Lin28A ZKD, labeled Let-7 probe and 100× non-labeled competitor probe (lane 3). EMSA used Lin28A ZKD, labeled Let-7 probe, and 100–1200 uM of indicated compounds (lanes 4–10). (B) FP assays were performed by using 10 uM of Lin28A ZKD, 1 nM of FAM-labeled Let-7 probe, and 1 nM–200 uM of compounds. (C) Lin28A-positive IGROV1 cells were treated with 20 uM of the indicated compound for 48 h. Real-time qPCR measured RNA levels of Let-7d, SOX2, and HMGA2. Three biological replicates were performed and all results are presented as mean +/− SD. p-value ≤ 0.05—(*); ≤0.01—(**); ≤0.001—(***).

[3] = set-up: method as in PMID 29874593; details: cited from earlier work
Lin28A ZKD = biological target: T1, Lin28A ZKD (Homo sapiens, UniProt Q9H9Z2); experiment: EMSA, Lin28A ZKD–Let-7 complex; assay type: binding; details: compounds 100–1200 uM
T1 construct: Lin28A ZKD (aa121-187); His-tag; made in house; host or cells: Escherichia coli BL21
T1 sequence (Q9H9Z2 121-187): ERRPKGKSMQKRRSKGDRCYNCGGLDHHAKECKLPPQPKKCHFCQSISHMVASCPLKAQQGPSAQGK
Procedure: EMSA followed the standard protocols we published with minor modifications. An IRDye800CWN-labeled Let-7 RNA probe was purchased from IDT (Coralville, IA, USA). Lin28B or Lin28A proteins were incubated with […] of probe in a standard 20 uL EMSA reaction in a reaction buffer containing 20 mM HEPES-NaOH, pH 7.4, 2 mM DTT, 3 mM MgCl2, 0.05% NP-40, protease inhibitors, and 0.1 ug poly[dI:dC]. After incubation for 30 min at 37 °C, reactions were loaded onto 4% non-denatured polyacrylamide gel in 0.5× TBE buffer. The RNA oligo bands were visualized by using the Li-Cor Odyssey 9120 Infrared Imaging System.
as §3

DUNE cells [4] = experiment: FACS analysis of CD44 and CD133 positive cell populations; assay type: cell-based; details: 20 uM, 48 h; for % of CD133+ cells: paired vehicle 60.8–65.4; for % CD44+ cells: paired vehicle 84.7–94.9
Procedure: as §1, §2

DUNE cells [5] = experiment: Immunoblotting in DUNE cells; assay type: cell-based; details: 20uM, 24 hours, immunoblot
Procedure: as §1
Figure S2. DUNE cells were treated with 20uM of indicated compounds for 24 hours. Protein lyses were collected and immunoblotted with Vinculin, SOX2, and HMGA2 antibodies. […]
Figure S3. DUNE or DUNE(KO) cells were treated with 20uM of indicated compounds for 24 hours. Protein lyses were collected and immunoblotted with Lin28b, SYP, CD44, and CD133 antibodies. Beta-actin was used as the loading control. […]

In the case of `CCOc1cccc2c1N[C@@H](c1ccc(C(=O)O)cc1)[C@H]1CC=C[C@@H]21` [Li71, reference compound], the “formation of cancer cell colonies” value (DUNE cells [1]) is listed as “strongly suppressed”, the cellular toxicity [2] is listed as “low cellular toxicity” and the “Let-7 microRNA levels” value (IGROV1 cells) is listed as “upregulated”. The solubility [3] was “high solubility” and the “concentration that inhibits formation of Lin28A ZKD–Let-7 complex in EMSA” value (“concentration that inhibits formation” for short) (Lin28A ZKD) was 100 to 400 µM.

In the case of `CC(=O)N(C)c1cccc(-c2ccc3nnc(C)n3n2)c1` [compound 1632, reference compound], the “formation of cancer cell colonies” value (DUNE cells [1]) is reported as “strongly suppressed”, the “Let-7 microRNA levels” value (IGROV1 cells) is reported as “upregulated” and the “concentration that inhibits formation” value (Lin28A ZKD) is reported as greater than 1200 µM.

In the case of `O=c1[nH]c(Nc2ccccc2O)cs1` [Ln15], the “formation of cancer cell colonies” value (DUNE cells [1]) is reported as “strongly suppressed”, the “suppressive effect on colony formation” value (DUNE cells [1]; colonies >50 uM counted) is reported as ~ 90% and the “upregulation of Let-7” value (IGROV1 cells) is reported as 10 fold. For the same compound, the “CD44- and CD133-positive cell populations” value (DUNE cells [4]) was “significant reductions”, the “% of CD133+ cells” value (DUNE cells [4]) was 14.7 ± 2.1% and the “% CD44+ cells” value (DUNE cells [4]) was 70.1 ± 4.6%. For the same compound, the “concentration that inhibits formation” value (Lin28A ZKD) was 100 to 400 µM and the “protein expression of SYP” value (DUNE cells [5]) was “suppressed”.

In the case of `CCc1cc(=O)[nH]c(Nc2cc(Cl)ccc2O)n1` [Ln7], the “formation of cancer cell colonies” value (DUNE cells [1]) is reported as “strongly suppressed”, the “CD44- and CD133-positive cell populations” value (DUNE cells [4]) is reported as “significant reductions” and the “% of CD133+ cells” value (DUNE cells [4]) is reported as 37.1 ± 4.2%. For the same compound, the “% CD44+ cells” value (DUNE cells [4]) was 61.6 ± 3.2% and the “concentration that inhibits formation” value (Lin28A ZKD) was greater than 1200 µM.

For `O=c1cccc(-c2nc3cc(F)c(O)cc3c(=O)[nH]2)[nH]1` [Ln115], the “formation of cancer cell colonies” value (DUNE cells [1]) was “strongly suppressed”, the “CD44- and CD133-positive cell populations” value (DUNE cells [4]) was “significant reductions” and the “% of CD133+ cells” value (DUNE cells [4]) was 30 ± 4.5%. For the same compound, the “% CD44+ cells” value (DUNE cells [4]) was 54.3 ± 6.0%, the “concentration that inhibits formation” value (Lin28A ZKD) was 100 to 400 µM and the “protein expression of SYP” value (DUNE cells [5]) was “suppressed”.
